From US7875647B2, “Heteroaryl-pyrazole derivatives as cannabinoid CB1 receptor antagonists” (Green Cross Corporation, priority 2006, dated 2011)
Where two headings read alike, the source gives them in different places.

Biological target: T1, Cannabinoid-1 receptor (CB1R) (Rattus norvegicus, UniProt P20272)
T1 construct: The tissue obtained from the brain of SD rats was homogenized; from tissue; host or cells: brain of SD rats (membrane pellet of the homogenate)
Assay: Cannabinoid-1 receptor (CB1R) binding affinity assay ([3H]CP-55940, rat CB-1 receptor binding protocol)
Conditions: brain tissue of SD rats, [3H]CP-55940, 30° C. 60 min

T1 sequence (P20272 whole entry): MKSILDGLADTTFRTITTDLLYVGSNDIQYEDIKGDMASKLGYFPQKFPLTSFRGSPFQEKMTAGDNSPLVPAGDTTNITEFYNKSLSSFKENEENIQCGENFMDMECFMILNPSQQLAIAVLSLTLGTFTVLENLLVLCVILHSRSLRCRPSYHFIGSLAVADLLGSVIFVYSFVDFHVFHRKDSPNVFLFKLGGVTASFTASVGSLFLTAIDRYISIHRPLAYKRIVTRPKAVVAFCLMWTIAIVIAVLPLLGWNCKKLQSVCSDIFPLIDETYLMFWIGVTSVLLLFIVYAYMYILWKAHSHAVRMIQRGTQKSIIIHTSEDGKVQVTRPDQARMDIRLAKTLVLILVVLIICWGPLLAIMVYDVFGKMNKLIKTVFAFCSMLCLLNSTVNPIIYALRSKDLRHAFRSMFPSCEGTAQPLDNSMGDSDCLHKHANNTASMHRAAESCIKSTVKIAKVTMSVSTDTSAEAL

Row | Compound | IC50 (read-out: IC50) [nM] | IC50 (IC50(nM)) [nM]
1 | Cc1c(-c2nnc(CC3CCCC3)s2)nn(-c2ccc(Cl)cc2Cl)c1-c1ccc(Cl)cc1 [Example 357, 2-(5-(4-Chlorophenyl)-1-(2,4-dichlorophenyl)-4-methyl-1H-pyrazol-3-yl)-5-(cyclopentylmethyl)-1,3,4-thiadiazole] | 30.9 | 
2 | Cc1c(-c2nnc(C3CCOCC3)s2)nn(-c2ccc(Cl)cc2Cl)c1-c1ccc(Cl)cc1 [Example 358, 2-(5-(4-Chlorophenyl)-1-(2,4-dichlorophenyl)-4-methyl-1H-pyrazol-3-yl)-5-(tetrahydro-2H-pyran-4-yl)-1,3,4-thiadiazole] | 54.3 | 
3 | Cc1c(-c2nnc(C3CCCO3)s2)nn(-c2ccc(Cl)cc2Cl)c1-c1ccc(Cl)cc1 (stereo not shown) [Example 359, 2-(5-(4-Chlorophenyl)-1-(2,4-dichlorophenyl)-4-methyl-1H-pyrazol-3-yl)-5-(tetrahydrofuran-2-yl)-1,3,4-thiadiazole] | 27.6 | 
4 | Cc1nnc(-c2nn(-c3ccc(Cl)cc3Cl)c(-c3ccc(Cl)cc3)c2C)s1 [Example 360, 2-(5-(4-chlorophenyl)-1-(2,4-dichlorophenyl)-4-methyl-1H-pyrazol-3-yl)-5-methyl-1,3,4-thiadiazole] | 97.2 | 
5 | CCCCCc1nnc(-c2nn(-c3ccc(Cl)cc3Cl)c(-c3ccc(Cl)cc3)c2C)s1 [Example 361, 2-(5-(4-Chlorophenyl)-1-(2,4-dichlorophenyl)-4-methyl-1H-pyrazol-3-yl)-5-pentyl-1,3,4-thiadiazole] | 69.2 | 
6 | Cc1c(-c2nnc(C3CCCCCC3)s2)nn(-c2ccc(Cl)cc2Cl)c1-c1ccc(Cl)cc1 [Example 362, 2-(5-(4-Chlorophenyl)-1-(2,4-dichlorophenyl)-4-methyl-1H-pyrazol-3-yl)-5-cycloheptyl-1,3,4-thiadiazole] | 36.1 | 
7 | Cc1c(-c2nnc(C3CCC3)s2)nn(-c2ccc(Cl)cc2Cl)c1-c1ccc(Br)cc1 [Example 364, 2-(5-(4-Bromophenyl)-1-(2,4-dichlorophenyl)-4-methyl-1H-pyrazol-3-yl)-5-cyclobutyl-1,3,4-thiadiazole] | 34.4 | 
8 | Cc1c(-c2nnc(CC3CCCCC3)s2)nn(-c2ccc(Cl)cc2Cl)c1-c1ccc(Cl)cc1 [Example 365, 2-(5-(4-Chlorophenyl)-1-(2,4-dichlorophenyl)-4-methyl-1H-pyrazol-3-yl)-5-(cyclohexylmethyl)-1,3,4-thiadiazole] | 20.4 | 
9 | Cc1c(-c2nnc(C3CCCC3)s2)nn(-c2ccc(Cl)cc2Cl)c1-c1ccc(Br)cc1 [Example 366, 2-(5-(4-Bromophenyl)-1-(2,4-dichlorophenyl)-4-methyl-1H-pyrazol-3-yl)-5-cyclopentyl-1,3,4-thiadiazole] | 18.1 | 
10 | CCC(C)c1nnc(-c2nn(-c3ccc(Cl)cc3Cl)c(-c3ccc(Cl)cc3)c2C)s1 (stereo not shown) [Example 367, 2-sec-Butyl-5-(5-(4-chlorophenyl)-1-(2,4-dichlorophenyl)-4-methyl-1H-pyrazol-3-yl)-1,3,4-thiadiazole] | 24.8 | 
11 | CCCC(C)c1nnc(-c2nn(-c3ccc(Cl)cc3Cl)c(-c3ccc(Cl)cc3)c2C)s1 (stereo not shown) [Example 368, 2-(5-(4-Chlorophenyl)-1-(2,4-dichlorophenyl)-4-methyl-1H-pyrazol-3-yl)-5-(pentan-2-yl)-1,3,4-thiadiazole] | 13.4 | 
12 | Cc1c(-c2nnc(C(C)(C)C)s2)nn(-c2ccc(Cl)cc2Cl)c1-c1ccc(Br)cc1 [Example 369, 2-(5-(4-Bromophenyl)-1-(2,4-dichlorophenyl)-4-methyl-1H-pyrazol-3-yl)-5-tert-butyl-1,3,4-thiadiazole] | 12.5 | 
13 | Cc1c(-c2nnc(CC3CC3)s2)nn(-c2ccc(Cl)cc2Cl)c1-c1ccc(Cl)cc1 [Example 370, 2-(5-(4-Chlorophenyl)-1-(2,4-dichlorophenyl)-4-methyl-1H-pyrazol-3-yl)-5-(cyclopropylmethyl)-1,3,4-thiadiazole] | 67.7 | 
14 | Cc1c(-c2nnc(C(C)(C)C)s2)nn(-c2ccc(Cl)cc2Cl)c1-c1ccc(Cl)cc1 [Example 372, 2-tert-Butyl-5-(5-(4-chlorophenyl)-1-(2,4-dichlorophenyl)-4-methyl-1H-pyrazol-3-yl)-1,3,4-thiadiazole] | 25.2 | 
15 | Cc1c(-c2nnc(C3CCCCC3)s2)nn(-c2ccc(Cl)cc2Cl)c1-c1ccc(Br)cc1 [Example 373, 2-(5-(4-Bromophenyl)-1-(2,4-dichlorophenyl)-4-methyl-1H-pyrazol-3-yl)-5-cyclohexyl-1,3,4-thiadiazole] | 20.5 | 
16 | CCc1c(-c2nnc(C3CCCCC3)s2)nn(-c2ccc(Cl)cc2Cl)c1-c1ccc(Br)cc1 [Example 374, 2-(5-(4-Bromophenyl)-1-(2,4-dichlorophenyl)-4-ethyl-1H-pyrazol-3-yl)-5-cyclohexyl-1,3,4-thiadiazole] | 30.5 | 
17 | CCc1c(-c2nnc(C3CCC3)s2)nn(-c2ccc(Cl)cc2Cl)c1-c1ccc(Br)cc1 [Example 375, 2-(5-(4-Bromophenyl)-1-(2,4-dichlorophenyl)-4-ethyl-1H-pyrazol-3-yl)-5-cyclobutyl-1,3,4-thiadiazole] | 18.5 | 
18 | CCc1c(-c2nnc(C3CCCC3)s2)nn(-c2ccc(Cl)cc2Cl)c1-c1ccc(Br)cc1 [Example 376, 2-(5-(4-Bromophenyl)-1-(2,4-dichlorophenyl)-4-ethyl-1H-pyrazol-3-yl)-5-cyclopentyl-1,3,4-thiadiazole] | 18.7 | 
19 | CCc1c(-c2nnc(C(C)(C)C)s2)nn(-c2ccc(Cl)cc2Cl)c1-c1ccc(Br)cc1 [Example 377, 2-(5-(4-Bromophenyl)-1-(2,4-dichlorophenyl)-4-ethyl-1H-pyrazol-3-yl)-5-tert-butyl-1,3,4-thiadiazole] | 9.57 | 
20 | Cc1c(-c2nnc(C3CCCCCC3)s2)nn(-c2ccc(Cl)cc2Cl)c1-c1ccc(Br)cc1 [Example 378, 2-(5-(4-Bromophenyl)-1-(2,4-dichlorophenyl)-4-methyl-1H-pyrazol-3-yl)-5-cycloheptyl-1,3,4-thiadiazole] | 31 | 
21 | CCCCC(C)c1nnc(-c2nn(-c3ccc(Cl)cc3Cl)c(-c3ccc(Cl)cc3)c2C)s1 (stereo not shown) [Example 379, 2-(5-(4-Chlorophenyl)-1-(2,4-dichlorophenyl)-4-methyl-1H-pyrazol-3-yl)-5-(hexan-2-yl)-1,3,4-thiadiazole] | 16.9 | 
22 | CCCCC(C)c1nnc(-c2nn(-c3ccc(Cl)cc3Cl)c(-c3ccc(Br)cc3)c2C)s1 (stereo not shown) [Example 380, 2-(5-(4-Bromophenyl)-1-(2,4-dichlorophenyl)-4-methyl-1H-pyrazol-3-yl)-5-(hexan-2-yl)-1,3,4-thiadiazole] |  | 11.5
23 | Cc1c(-c2nnc(C(C)c3ccccc3)s2)nn(-c2ccc(Cl)cc2Cl)c1-c1ccc(Cl)cc1 (stereo not shown) [Example 381, 2-(5-(4-chlorophenyl)-1-(2,4-dichlorophenyl)-4-methyl-1H-pyrazol-3-yl)-5-(1-phenylethyl)-1,3,4-thiadiazole] | 11.2 | 
24 | Cc1c(-c2nnc(NC3CCCCC3)s2)nn(-c2ccc(Cl)cc2Cl)c1-c1ccc(Cl)cc1 [Example 382, 5-(5-(4-chlorophenyl)-1-(2,4-dichlorophenyl)-4-methyl-1H-pyrazol-3-yl)-N-cyclohexyl-1,3,4-thiadiazol-2-amine] | 60.3 | 
25 | Cc1c(-c2nnc(C3CC=CCC3)s2)nn(-c2ccc(Cl)cc2Cl)c1-c1ccc(Cl)cc1 (stereo not shown) [Example 383, 2-(5-(4-chlorophenyl)-1-(2,4-dichlorophenyl)-4-methyl-1H-pyrazol-3-yl)-5-(cyclohex-3-enyl)-1,3,4-thiadiazole] | 85.3 | 
